Results: publication PMC10952255, “Solid‐Phase Synthesis and Biological Evaluation of Peptides ADP‐Ribosylated at Histidine” (Angewandte Chemie (Weinheim an Der Bergstrasse, Germany), 2023)
Starred links: 1 amine or outer side, 2 acyl side, 3 side chain; linkers in the order of their positions; H or OH if unused. Non-standard residues stand in square brackets, D forms with d. Residues, ends and D or L forms follow the SMILES beside them. X1 = Nc1ncnc2c1ncn2[C@@H]1O[C@H](COP(=O)(O)OP(=O)(O)OC[C@H]2O[C@H](n3cncc3C[C@H](N[*:1])C(=O)[*:2])[C@H](O)[C@@H]2O)[C@@H](O)[C@H]1O

Tests used:
[1] = quoted without reference; cited from earlier work
[2] = Chemical stability assay (LC-MS based) under acidic, basic and nucleophilic conditions; assay type: physicochemical
Description: Having prepared ADPr‐His peptides 26–28, we tested their stability under basic and acidic conditions in an LC–MS‐based assay to evaluate their sensitivity for future synthetic and biochemical studies. A selected set of chemically diverse conditions (aqueous acid, aqueous base and a neutral nucleophile) was probed because these are commonly applied in proteomic studies to identify ADP‐ribosylation sites[22] in proteins or during sample preparation.[14, 28] Aqueous solutions of the ADPr peptides with a final concentration of 0.1 M TFA, 0.1 M NaOH or 0.5 M NH2OH were prepared and shaken for 24 h at room temperature. […] In contrast, the NaOH treatment led to some conversion of the N(τ)‐ribosylated histidines 26 and 27 into products with an identical mass (approximately 7 and 11 %, respectively), indicating a slow epimerization of the modified histidine residue in N(τ)‐ribosyl peptides. […]
Figure 5 A) Chemical stability of peptide 28 under basic conditions (NaOH, 0.1 M). […] Peptide degradation was quantified by analyzing the UV‐trace (260 nm) using Xcalibur software. […] Enzymatic turnover of the various peptides was assessed by monitoring AMP release directly (NudT16) or converting released ADPr via NudT5 to AMP. AMP was measured using the AMP‐Glo assay (Promega). Samples are background corrected and normalized to NudT16 activity The data represents mean values±SD measured in triplicates. […]

SMILES	pKa [1]	ADPr-peptide remaining in its original form ([2]; 0.1 M NaOH, after 24 h, LC-MS UV-trace 260 nm)	degradation of the pyrophosphate linkage ([2]; alkaline treatment (0.1 M NaOH), after a week, LC-MS)
c1c[nH]nn1 [1,2,3‐triazole]	9.4		
CC(C)C[C@H](NC(=O)CNC(=O)[C@H](C)NC(=O)CNC(=O)[C@H](Cc1cncn1[C@H]1O[C@H](COP(=O)(O)OP(=O)(O)OC[C@H]2O[C@@H](n3cnc4c(N)ncnc43)[C@H](O)[C@@H]2O)[C@@H](O)[C@H]1O)NC(=O)[C@H](Cc1ccccc1)NC(=O)[C@@H](N)[C@@H](C)O)C(=O)N[C@H](C(=O)N[C@H](C(=O)N1CCC[C@H]1C(=O)N[C@H](C(=O)N[C@@H](CC(=O)O)C(=O)N[C@@H](CCCCN)C(=O)O)C(C)C)C(C)C)C(C)C [compound 28] (H-TF[X1]GAGLVVPVDK-OH)		approximately 60%	no degradation of the pyrophosphate linkage was observed
